{"source": "patent US20210035672A1", "about": "“METHOD AND […] FOR INDIVIDUALIZED ADMINISTRATION OF MEDICAMENTS FOR […] WITHIN A T[…]” (University Of Maryland, Baltimore, priority 2018, published 2021)", "key": {"[1]": {"assay": "Population pharmacokinetics of vancomycin in neonates (hierarchical Bayesian one-compartment model)", "assay_type": "in vivo", "source_text": "Briefly, in step 305, a one-compartment linear disposition model with zero order input (one hour intravenous infusion) and first-order elimination was used to describe the data collected in step 301. In step 303 Weight (Wt) and estimated glomerular filtration rate (EGFR) were included as covariates on clearance (CL), and weight was included as covariate on volume of distribution (V). Back in step 305, a lognormal distribution was used to describe the between-subject-variability (BSV) in model parameter estimates CL and V, as expressed in Equation 8 and Equation 9.\nwhere CLi and Vi are the true parameters for the individual, CLtypical and Vtypical are the population value of the parameters, and ηCL and ηv denote the deviation between the typical value of the parameters and the true parameter value of an individual. The coefficient that describes the relationship between EGFR and CLtypical is denoted by CLEGFR. […] In Table 1, PM indicates posterior median; LCI indicates lower credible interval; and UCI indicates upper credible interval. In other embodiments, based on different datasets or different training approaches, the parameter values are expected to differ to some degree."}, "[2]": {"details": "cited from earlier work"}}, "data": [{"smiles": "CN[C@H](CC(C)C)C(=O)N[C@H]1C(=O)N[C@@H](CC(N)=O)C(=O)N[C@H]2C(=O)N[C@H]3C(=O)N[C@H](C(=O)N[C@H](C(=O)O)c4cc(O)cc(O)c4-c4cc3ccc4O)[C@H](O)c3ccc(c(Cl)c3)Oc3cc2cc(c3O[C@@H]2O[C@H](CO)[C@@H](O)[C@H](O)[C@H]2O[C@H]2C[C@](C)(N)[C@H](O)[C@H](C)O2)Oc2ccc(cc2Cl)[C@H]1O", "note": "[vancomycin]", "values": [{"measurement": "Interindividual variability CL, posterior median", "setting": "[1]; in vivo", "result": 22.9, "unit": "% CV"}, {"measurement": "Interindividual variability V, posterior median", "setting": "[1]; in vivo", "result": 15.4, "unit": "% CV"}, {"measurement": "Residual variability, proportional, posterior median", "setting": "[1]; in vivo", "result": 17.3, "unit": "% CV"}, {"measurement": "CLtypical, posterior median", "setting": "[1]; typical individual 2.9 kg, estimated glomerular filtration rate of 30 mL/min per 1.73 m^2, one hour intravenous infusion", "result": 0.167, "unit": "L/h"}, {"measurement": "patients with AUC0-24 hr exceeding 600", "setting": "[2]; current practice", "result": "over 30%"}, {"measurement": "final target attainment", "setting": "[2]; with TDM", "result": "~45", "unit": "%"}, {"measurement": "neonates that initially achieve recommended target concentrations", "setting": "[2]; with dosing nomograms, studies across the US and Europe", "result": 37, "unit": "%"}]}]}
